{"source": "patent US6485921B1", "about": "“UBCLP and uses thereof” (Millennium Pharmaceuticals, Inc., priority 1998, dated 2002)", "tested_on": "UBCLP expression in LNCaP cells", "experiment": "Expression of UBCLP in LNCaP prostate cancer cells treated with casodex or R1881", "assay_type": "cell-based, human", "details": "100 nM casodex versus 1 nM R1881, RPMI-1640 with 5% charcoal stripped serum, mRNA expression analysis", "protocol": "In order to examine the effect of casodex, an anti-androgen, on the expression of UBCLP, LNCaP cells (androgen-responsive prostate cancer cells) were grown to 70% confluence in RPMI-1640 supplemented with 10% FBS. The cultures were then pretreated for 24 hours in dye-free RPMI-1640 containing 5% charcoal stripped serum. The cultures were then treated with either 1 nM R1881 or 100 nM casodex in RPMI-1640 containing 5% charcoal stripped serum prior to harvesting an extraction of total mRNA for expression analysis.\nIn CWR22 cells (a human primary prostate xenograft cell line; Wainstein et al. (1994) Cancer Res. 54:6059-52) implanted in male nude mice, UBCLP expression levels decrease about 5-fold in 21 days after castration. In CWR22R cells (Chen et al. (1998) Cancer Res 58:2777-83), an androgen-independent variant of CWR22 cells, UBCLP appears to be constitutively expressed with respect to androgen."}
{"smiles": "CC(O)(CS(=O)(=O)c1ccc(F)cc1)C(=O)Nc1ccc(C#N)c(C(F)(F)F)c1", "note": "(stereo not shown) [Casodex]", "values": [{"measurement": "drop in UBCLP expression", "value": 3, "unit": "fold"}]}
